Results: US20230248653A1, “ELECTROSPRAYED AND ELECTROSPUN CANNABINOID COMPOSITIONS AND PROCESS TO PRODUCE” (priority 2019, published 2023)

Test: Solubility of CBD in water, HFIP and acetic acid-water solutions
Assay type: physicochemical
From the text: Fast dissolving particles were produced using edible gelatin nanoscale particles created from acetic acid-water based solutions. A solution was created, and the electrospray process was repeated to see if reproducible results were obtainable.
In order to create CBD particles in a gelatin-based solution, the solubility of CBD in different acetic acid-water based solutions was explored.

## C=C(C)[C@@H]1CCC(C)=C[C@H]1c1c(O)cc(CCCCC)cc1O [CBD, Cannabidiol]
30% v/v AA(aq.)
  solubility in acetic acid-water solution: Emulsions were formed
40% v/v AA(aq.)
  solubility in acetic acid-water solution: Emulsions were formed
50% v/v AA(aq.) and higher concentrations
  solubility in acetic acid-water solution: clear, homogeneous and well mixed soluble CBD solution
HFIP
  solubility in HFIP: soluble
water
  solubility in water: not able to dissolve in water
